# Data: US10160762B2, “6-alkyl dihydropyrazolopyrimidinone compounds as PDE2 inhibitors” (Merck Sharp & Dohme Corp., priority 2015, dated 2018)
# Like-named read-outs stand apart in the source and are kept apart here.
# Biological target: T1, Rhesus PDE2A3 (Macaca mulatta, UniProt B3VTJ2)
# T1 construct: made in house; host or cells: AD293 cells, transient transfection; supernatant of sonicated lysate
# T1 sequence (B3VTJ2 1-941): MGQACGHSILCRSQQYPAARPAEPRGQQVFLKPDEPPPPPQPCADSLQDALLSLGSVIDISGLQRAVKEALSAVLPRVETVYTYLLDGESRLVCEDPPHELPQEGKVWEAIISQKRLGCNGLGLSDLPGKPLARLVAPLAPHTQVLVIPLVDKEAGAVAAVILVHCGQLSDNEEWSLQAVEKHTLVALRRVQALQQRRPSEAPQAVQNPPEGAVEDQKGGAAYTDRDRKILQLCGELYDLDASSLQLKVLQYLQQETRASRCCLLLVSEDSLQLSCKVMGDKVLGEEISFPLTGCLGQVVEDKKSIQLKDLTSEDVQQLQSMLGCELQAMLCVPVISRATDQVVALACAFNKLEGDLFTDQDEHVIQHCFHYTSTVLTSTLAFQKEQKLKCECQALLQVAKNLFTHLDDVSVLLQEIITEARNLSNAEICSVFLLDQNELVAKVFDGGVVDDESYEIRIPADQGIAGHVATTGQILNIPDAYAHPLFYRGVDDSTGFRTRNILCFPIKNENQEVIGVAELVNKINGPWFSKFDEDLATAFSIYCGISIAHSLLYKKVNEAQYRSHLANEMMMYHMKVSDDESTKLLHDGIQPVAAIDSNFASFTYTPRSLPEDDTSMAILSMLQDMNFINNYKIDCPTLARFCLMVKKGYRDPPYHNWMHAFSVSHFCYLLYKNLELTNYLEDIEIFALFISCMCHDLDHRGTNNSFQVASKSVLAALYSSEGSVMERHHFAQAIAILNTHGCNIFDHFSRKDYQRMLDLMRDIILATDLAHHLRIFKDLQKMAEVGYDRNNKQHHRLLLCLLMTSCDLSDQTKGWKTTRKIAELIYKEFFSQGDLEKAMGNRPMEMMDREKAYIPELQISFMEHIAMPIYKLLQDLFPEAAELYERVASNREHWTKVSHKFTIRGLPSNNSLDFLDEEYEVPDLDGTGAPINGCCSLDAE
# Assay: PDE2 fluorescence polarization (IMAP FP) inhibition assay, rhesus PDE2A3
# Type: biochemical, rhesus macaque
# Procedure, shortened: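 Enzyme source was the lysate supernatant of AD293 cells transiently expressing rhesus PDE2A3, diluted to give 20% conversion of 50 nM FAM-cAMP, with 1 µM cGMP as activator. Buffer was 10 mM Tris pH 7.2, 10 mM MgCl2, 1 mM DTT.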
# [1] = Lab A, read-out: Rhesus PDE2 Ki (nM) Lab A
# [2] = Lab B, read-out: Rhesus PDE2 Ki (nM) Lab B
SMILES,Ki [1] [nM],Ki [2] [nM]
"Cc1nc2c(c(CO)nn2[C@@H](C)c2ccc(C(C)(C)C)cc2)c(=O)[nH]1 [Example 157, (S)-1-(1-(4-tert-Butylphenyl)ethyl)-3-(hydroxymethyl)-6-methyl-1H-pyrazolo[3,4-d]pyrimidin-4(5H)-one]",–,0.96
"Cc1nc2c(c(CO)nn2[C@H](c2ccc(C(C)(C)C)cc2)C(C)C)c(=O)[nH]1 [Example 159, (S)-1-(1-(4-tert-Butylphenyl)-2-methylpropyl)-3-(hydroxymethyl)-6-methyl-1H-pyrazolo[3,4-d]pyrimidin-4(5H)-one]",–,2.8
"Cc1nc2c(c(CO)nn2[C@@H](c2ccc(C(C)(C)C)cc2)C(C)C)c(=O)[nH]1 [Example 160, (R)-1-(1-(4-tert-Butylphenyl)-2-methylpropyl)-3-(hydroxymethyl)-6-methyl-1H-pyrazolo[3,4-d]pyrimidin-4(5H)-one]",–,0.3
"Cc1nc2c(c(CF)nn2C(c2ccc(C(F)(F)F)cc2)C(F)(F)F)c(=O)[nH]1 (stereo not shown) [Example 201, 3-(Fluoromethyl)-6-methyl-1-(2,2,2-trifluoro-1-(4-(trifluoromethyl)phenyl)-ethyl)-1H-pyrazolo[3,4-d]pyrimidin-4(5H)-one]",1.4,4.1
"Cc1nc2c(c(CF)nn2C2(c3ccc(C(F)(F)F)cc3)CCC2)c(=O)[nH]1 [Example 202, 3-(Fluoromethyl)-6-methyl-1-(1-(4-(trifluoromethyl)phenyl)cyclobutyl)-1H-pyrazolo[3,4-d]pyrimidin-4(5H)-one]",–,3.1
"Cc1ccc(C(C)n2nc(CF)c3c(=O)[nH]c(C)nc32)cc1 (stereo not shown) [Example 203, 3-(Fluoromethyl)-6-methyl-1-(1-p-tolylethyl)-1H-pyrazolo[3,4-d]pyrimidin-4(5H)-one]",~12,12

# Now from value to molecule:
Ki [1] [nM],Ki [2] [nM],SMILES
29,–,"Cc1nn(C(C)c2ccc(C(F)(F)F)cc2)c2nc(-c3cnn(C)c3)[nH]c(=O)c12 (stereo not shown) [Example 53, 3-Methyl-6-(1-methyl-1H-pyrazol-4-yl)-1-{1-[4-(trifluoromethyl)phenyl]ethyl}-1,5-dihydro-4H-pyrazolo[3,4-d]pyrimidin-4-one]"
32,–,"Cc1nc(-c2nc3c(c(C)nn3C(C)c3ccc(C(F)(F)F)cc3)c(=O)[nH]2)c(C)o1 (stereo not shown) [Example 54, 6-(2,5-Dimethyl-1,3-oxazol-4-yl)-3-methyl-1-{1-[4-(trifluoromethyl)phenyl]ethyl}-1,5-dihydro-4H-pyrazolo[3,4-d]pyrimidin-4-one]"
–,4.5,"Cc1nc2c(c(CO)nn2[C@@H](C)c2ccc(OC(F)(F)F)cc2)c(=O)[nH]1 [Example 158, (S)-3-(Hydroxymethyl)-6-methyl-1-(1-(4-(trifluoromethoxy)phenyl)ethyl)-1H-pyrazolo[3,4-d]pyrimidin-4(5H)-one]"
6.7,7.9,"Cc1nc2c(c(C(F)F)nn2C(C)c2ccc(C(F)(F)F)cc2)c(=O)[nH]1 (stereo not shown) [Example 166, 3-(Difluoromethyl)-6-methyl-1-{1-[4-(trifluoromethyl)phenyl]ethyl}-1,5-dihydro-4H-pyrazolo[3,4-d]pyrimidin-4-one]"
–,1.2,"Cc1nc2c(c(C(F)F)nn2C(c2ccc(OC(F)(F)F)c(F)c2)C2CC2)c(=O)[nH]1 (stereo not shown) [Example 193, 1-(Cyclopropyl(3-fluoro-4-(trifluoromethoxy)phenyl)methyl)-3-(difluoromethyl)-6-methyl-1H-pyrazolo[3,4-d]pyrimidin-4(5H)-one]"
–,17,"COc1ccc(C(=O)c2nc3c(c(C(F)F)nn3C(C)c3ccc(C(F)(F)F)cc3)c(=O)[nH]2)cc1OC (stereo not shown) [Example 198, 3-(Difluoromethyl)-6-(3,4-dimethoxybenzoyl)-1-(1-(4-(trifluoromethyl)phenyl)ethyl)-1H-pyrazolo[3,4-d]pyrimidin-4(5H)-one]"
4,–,"Cc1nc2c(c(CF)nn2C(C)c2ccc(C(F)(F)F)cc2)c(=O)[nH]1 (stereo not shown) [Example 204, 3-(Fluoromethyl)-6-methyl-1-{1-[4-(trifluoromethyl)phenyl]ethyl}-1,5-dihydro-4H-pyrazolo[3,4-d]pyrimidin-4-one]"
